Results as given in patent US10058550B2, “Methods of treating heart failure” (priority 2015, dated 2018).

target: human APJ receptor (Homo sapiens (Human), UniProt P35414); assay: biochemical; type: biochemical; details: read-out: Activity hAPJ SPA EC50 IP
Procedure: The human APJ receptor was cloned by polymerase chain reaction and the gene encoding the receptor was subcloned in pFLAG-CMV™-3 expression vector (Sigma, Saint Louis, Mo. USA) in-house at Amgen. A GTPγS binding assay was performed on membranes prepared from CHO cells stably expressing human APJ receptor. The optimum experimental conditions for the concentrations of GDP, MgCl2, and NaCl in the assay buffer were initially determined. The assay was performed in assay buffer [20 mM HEPES, pH 7.5, 5 mM MgCl2, and 0.1% (w/v) BSA with 200 mM NaCl, 3 μM GDP] and membranes expressing human APJ receptor/well along with WGA PS beads. The reaction was initiated by addition of 0.2 nM [^35S]GTPγS (Perkin Elmer Life and Analytical Sciences, Waltham USA) in the absence or presence of various ligands and incubated at RT for 90 min. […] All the results presented are means of several independent experiments and analyzed by non-linear regression methods using commercially available program Prism (GraphPad, San Diego, Calif.) to obtain EC50 detailed in Table 58.

Sequence of human APJ receptor (P35414 whole entry): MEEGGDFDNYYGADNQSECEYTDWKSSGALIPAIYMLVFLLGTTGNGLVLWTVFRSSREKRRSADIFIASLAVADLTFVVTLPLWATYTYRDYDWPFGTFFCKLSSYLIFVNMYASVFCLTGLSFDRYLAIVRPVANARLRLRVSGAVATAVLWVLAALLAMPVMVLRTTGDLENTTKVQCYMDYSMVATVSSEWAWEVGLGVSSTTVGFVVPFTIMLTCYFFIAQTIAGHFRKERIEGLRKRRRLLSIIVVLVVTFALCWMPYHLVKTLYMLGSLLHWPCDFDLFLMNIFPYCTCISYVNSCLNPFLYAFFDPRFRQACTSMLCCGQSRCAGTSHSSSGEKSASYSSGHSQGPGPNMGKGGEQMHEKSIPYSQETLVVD

Row | SMILES | EC50
1 | COc1cccc(-c2nnc(NS(=O)(=O)[C@@H](C)[C@H](OC)c3ncc(C)cn3)n2-c2c(OC)ccnc2OC)n1 (atropisomer, axis not shown) [Example 636.0, (1R,2S, P)-N-(4-(2,4-dimethoxypyridin-3-yl)-5-(6-methoxypyridin-2-yl)-4H-1,2,4-triazol-3-yl)-1-methoxy-1-(5-methylpyrimidin-2-yl)propane-2-sulfonamide and (1R,2S, M)-N-(4-(2,4-dimethoxypyridin-3-yl)-5-(6-methoxypyridin-2-yl)-4H-1,2,4-triazol-3-yl)-1-methoxy-1-(5-methylpyrimidin-2-yl)propane-2-sulfonamide] | 0.4 nM
2 | COc1cccc(F)c1-n1c(NS(=O)(=O)[C@@H](C)[C@H](C)c2ncc(C)cn2)nnc1-c1cncc(C)c1 (atropisomer, axis not shown) [Example 688.0, (2S,3R, P)-N-(4-(2-fluoro-6-methoxyphenyl)-5-(5-methyl-3-pyridinyl)-4H-1,2,4-triazol-3-yl)-3-(5-methyl-2-pyrimidinyl)-2-butanesulfonamide 2,2,2-trifluoroacetate and (2S,3R, M)-N-(4-(2-fluoro-6-methoxyphenyl)-5-(5-methyl-3-pyridinyl)-4H-1,2,4-triazol-3-yl)-3-(5-methyl-2-pyrimidinyl)-2-butanesulfonamide 2,2,2-trifluoroacetate] | 0.66 nM
3 | COc1cccc(-c2nnc(NS(=O)(=O)[C@@H](C)[C@H](OC)c3ncc(C)cn3)n2-c2cccnc2OC)n1 (atropisomer, axis not shown) [Example 741.0, (1R,2S)-1-methoxy-N-(5-(6-methoxypyridin-2-yl)-4-(2-methoxypyridin-3-yl)-4H-1,2,4-triazol-3-yl)-1-(5-methylpyrimidin-2-yl)propane-2-sulfonamide] | 3.1 nM
4 | COc1ccccc1-n1c(NS(=O)(=O)[C@@H](C)[C@H](C)c2ncc(C)cn2)nnc1-c1cncc(C)c1 (atropisomer, axis not shown) [Example 797.0, (2S,3R, P)-N-(4-(2-methoxyphenyl)-5-(5-methyl-3-pyridinyl)-4H-1,2,4-triazol-3-yl)-3-(5-methyl-2-pyrimidinyl)-2-butanesulfonamide and (2S,3R, M)-N-(4-(2-methoxyphenyl)-5-(5-methyl-3-pyridinyl)-4H-1,2,4-triazol-3-yl)-3-(5-methyl-2-pyrimidinyl)-2-butanesulfonamide] | 2.4 nM
5 | COc1cccc(-c2nnc(NS(=O)(=O)[C@@H](C)[C@H](OC)c3ncc(C)cn3)n2-c2cc(C)ccc2OC)n1 (atropisomer, axis not shown; (P)) [Example 40.0, (1R,2S,P)-1-methoxy-N-(4-(2-methoxy-5-methylphenyl)-5-(6-methoxypyridin-2-yl)-4H-1,2,4-triazol-3-yl)-1-(5-methylpyrimidin-2-yl)propane-2-sulfonamide and (1R,2S,M)-1-methoxy-N-(4-(2-methoxy-5-methylphenyl)-5-(6-methoxypyridin-2-yl)-4H-1,2,4-triazol-3-yl)-1-(5-methylpyrimidin-2-yl)propane-2-sulfonamide] | 4.7 nM
6 | COc1cccc(-c2nnc(NS(=O)(=O)[C@@H](C)[C@H](OC)c3ncc(C)cn3)n2-c2ccccc2OC)n1 (atropisomer, axis not shown; (P)) [Example 52.0, (1R,2S,P)-1-methoxy-N-(4-(2-methoxyphenyl)-5-(6-methoxy-2-pyridinyl)-4H-1,2,4-triazol-3-yl)-1-(5-methyl-2-pyrimidinyl)-2-propanesulfonamide and (1R,2S,M)-1-methoxy-N-(4-(2-methoxyphenyl)-5-(6-methoxy-2-pyridinyl)-4H-1,2,4-triazol-3-yl)-1-(5-methyl-2-pyrimidinyl)-2-propanesulfonamide] | 4.2 nM
7 | COc1cccc(-c2nnc(NS(=O)(=O)[C@@H](C)[C@H](OC)c3ncc(C)cn3)n2-c2cccc(Cl)c2C)n1 (atropisomer, axis not shown; (P)) [Example 55.0, (1R,2S,P)-N-(4-(3-chloro-2-methylphenyl)-5-(6-methoxy-2-pyridinyl)-4H-1,2,4-triazol-3-yl)-1-methoxy-1-(5-methyl-2-pyrimidinyl)-2-propanesulfonamide and (1R,2S,M)-N-(4-(3-chloro-2-methylphenyl)-5-(6-methoxy-2-pyridinyl)-4H-1,2,4-triazol-3-yl)-1-methoxy-1-(5-methyl-2-pyrimidinyl)-2-propanesulfonamide] | 17 nM
8 | COc1cccc(-c2nnc(NS(=O)(=O)[C@@H](C)[C@H](OC)c3ncc(C)cn3)n2-c2ccccc2C)n1 (atropisomer, axis not shown; (P)) [Example 61.0, (1R,2S,P)-1-methoxy-N-(5-(6-methoxy-2-pyridinyl)-4-(2-methylphenyl)-4H-1,2,4-triazol-3-yl)-1-(5-methyl-2-pyrimidinyl)-2-propanesulfonamide and (1R,2S,M)-1-methoxy-N-(5-(6-methoxy-2-pyridinyl)-4-(2-methylphenyl)-4H-1,2,4-triazol-3-yl)-1-(5-methyl-2-pyrimidinyl)-2-propanesulfonamide] | 6.5 nM
9 | COc1cccc(-c2nnc(NS(=O)(=O)[C@@H](C)[C@H](OC)c3ncc(C)cn3)n2-c2ccc(F)cc2Cl)n1 (atropisomer, axis not shown; (P)) [Example 67.0, (1R,2S,P)-N-(4-(2-chloro-4-fluorophenyl)-5-(6-methoxy-2-pyridinyl)-4H-1,2,4-triazol-3-yl)-1-methoxy-1-(5-methyl-2-pyrimidinyl)-2-propanesulfonamide and (1R,2S,M)-N-(4-(2-chloro-4-fluorophenyl)-5-(6-methoxy-2-pyridinyl)-4H-1,2,4-triazol-3-yl)-1-methoxy-1-(5-methyl-2-pyrimidinyl)-2-propanesulfonamide] | 15 nM
10 | COc1cccc(-c2nnc(NS(=O)(=O)[C@@H](C)[C@H](OC)c3ncc(C)cn3)n2-c2ccccc2Cl)n1 (atropisomer, axis not shown; (P)) [Example 69.0, (1R,2S,P)-N-(4-(2-chlorophenyl)-5-(6-methoxy-2-pyridinyl)-4H-1,2,4-triazol-3-yl)-1-methoxy-1-(5-methyl-2-pyrimidinyl)-2-propanesulfonamide and (1R,2S,M)-N-(4-(2-chlorophenyl)-5-(6-methoxy-2-pyridinyl)-4H-1,2,4-triazol-3-yl)-1-methoxy-1-(5-methyl-2-pyrimidinyl)-2-propanesulfonamide] | 2.1 nM
11 | COc1cccc(-c2nnc(NS(=O)(=O)[C@@H](C)[C@H](OC)c3ncc(C)cn3)n2-c2cccc(C)c2C)n1 (atropisomer, axis not shown; (P)) [Example 70.0, (1R,2S,P)-N-(4-(2,3-dimethylphenyl)-5-(6-methoxy-2-pyridinyl)-4H-1,2,4-triazol-3-yl)-1-methoxy-1-(5-methyl-2-pyrimidinyl)-2-propanesulfonamide and (1R,2S,M)-N-(4-(2,3-dimethylphenyl)-5-(6-methoxy-2-pyridinyl)-4H-1,2,4-triazol-3-yl)-1-methoxy-1-(5-methyl-2-pyrimidinyl)-2-propanesulfonamide] | 2.6 nM
